# According to PMC12292521, “Discovery of a Potent Antimicrobial Peptide Through Rational Design: A New Frontier in Pathogen Control” (Biomolecules, 2025):
# Read-outs that look alike come from different tables or passages of the source. Peptide text beside a SMILES is read from it.
# Tests used:
# [1] = tested on: Acinetobacter baumannii (CRAB); assay type: cell-based
# Protocol: (§1) Therefore, the minimum inhibitory concentration (MIC) and MBC were evaluated. […] Subsequently, the antibiofilm activity of the peptide was tested according to Festa et al.. Specifically, two different concentrations of peptide were used, corresponding to ½ and ¼ of the estimated MIC value, which guarantee the optimal bacterial growth conditions necessary to allow biofilm production. Biofilm production (%) was calculated based on Optical Density (measured at 630 nm) outputs, compared to the control group.
# [2] = tested on: Staphylococcus aureus (MRSA); assay type: cell-based; conditions: for MIC: broth microdilution, 96-well, RKW 1-75 μM
# Protocol: as §1
# [3] = tested on: Enterococcus faecium (VREfm); assay type: cell-based; conditions: broth microdilution, 96-well, RKW 1-75 μM
# Protocol: as §1
# P. aeruginosa biofilm = assay: Antibiofilm activity (crystal violet); assay type: cell-based, Pseudomonas aeruginosa; conditions: RKW at ½ and ¼ MIC (10 and 5 μM); OD 630 nm vs control; three independent experiments; ANOVA p < 0.05; greatest inhibition at ¼ MIC
# Protocol: as §1
# To compare the percentages of biofilm production across different samples, a one-way analysis of variance (ANOVA) was conducted using Prism v. 10.0 (GraphPad, Graph-Pad Software, La Jolla, CA, USA). Significant differences between sample pairs were identified with Tukey’s post hoc test (p < 0.05).
# [4] = Conformational stability by CD and fluorescence spectroscopy in SDS; assay type: physicochemical
# Protocol: The secondary structure elements of the antimicrobial molecule were analyzed in a 0.1 cm optical path-length quartz cuvette (Hellma Analytics, Milan, Italy) using Jasco J-810 Circular Dichroism Spectropolarimeter (JASCO, Tokyo, Japan). All spectra were recorded at 25 °C in a wavelength range of 190–250 nm with a 1 nm bandwidth, a scanning speed of 20 nm/min, and averaged over five scans. The spectra as a function of SDS concentration (3, 50, and 150 mM) were obtained at 50 μM final concentration of peptide in 10 mM Tris-HCl buffer, pH 7.0. The folding kinetic analysis of the peptide was carried out after the addition of SDS (50 mM) to the sample (50 μM in 10 mM Tris-HCl, pH 7.0), up to 24 h incubation. […] Next, 50 mM of SDS was added to each sample, which was analyzed by CD spectroscopy after 48 h of incubation at 25 °C. […] All CD spectra of RKW were corrected by subtracting a blank spectrum of a sample containing all components except the peptide (baseline correction). The mean residue ellipticity ([θ], deg. cm^2 dmol^−1) was obtained by the equation [θ] = 100 θ/cnl, where θ is the ellipticity (mdeg), c is the peptide concentration (mM), n is the number of residues, and l is the path length (cm).
# Fluorescence experiments were conducted in a Shimadzu RF-6000 spectrofluorometer (Kyoto, Japan). The analyses were performed by setting an excitation and emission slit width of 5 nm and using a quartz cell with a path length of 1 cm. The intrinsic tryptophan residues were excited at a wavelength of 280 nm, following the emission between 300 and 400 nm. The effects of SDS on the peptide folding, the folding kinetics, and the thermal and the pH stability were monitored as described in Section 2.2.
# [5] = 100 µM peptide, 37 °C, 24 h, RP-HPLC C18, absorbance 280 nm, peak area vs time 0, three independent studies
# Protocol: A total of 3.7 mg of peptide was dissolved in 1 mL of Milli-Q H2O to obtain a 2 mM stock solution. A 5% solution of Newborn Calf Serum (NCS) was prepared in Dulbecco’s phosphate-buffered saline (DPBS) (v/v) and then subjected to heat-inactivation by incubating the solution at 57 °C for 45 min (Hi-NCS). Therefore, 100 µM of peptide was incubated in 5% Hi-NCS at 37 °C for 24 h in DPBS. […] Therefore, the samples were centrifuged at 13,000 rpm for 5 min, and the supernatants were diluted in an equal volume of water. Finally, 200 µL of the collected solutions were loaded onto a μBondapak reversed-phase C18 column (Waters, 3.9 mm × 300 mm) connected to an HPLC system (Shimadzu, Milan, Italy), using a linear gradient of acetonitrile (5–95%) in water containing 0.1% TFA at a flow rate of 1 mL/min, and absorbance was detected at 280 nm. […] Samples containing only Hi-NCS were also analyzed. The same experiments were performed in the presence of NCS, not subjected to the heat inactivation treatment. Results are the average of three independent studies.
# [6] = inoculum 5 × 10^3 CFU/mL (3 Log)
# [7] = inoculum 5 × 10^5 CFU/mL (5 Log)
structure (smiles),measurement,setting,value
CC[C@H](C)[C@H](NC(=O)[C@H](Cc1c[nH]c2ccccc12)NC(=O)[C@H](CCCCN)NC(=O)[C@@H](N)CCCNC(=N)N)C(=O)N[C@@H](CC(C)C)C(=O)N[C@@H](CCCCN)C(=O)N[C@@H](Cc1c[nH]c2ccccc12)C(=O)N[C@@H](CC(C)C)C(=O)N[C@@H](CCCNC(=N)N)C(=O)N[C@H](C(=O)N[C@@H](Cc1c[nH]c2ccccc12)C(=O)N[C@@H](CCCCN)C(=O)N[C@@H](CCCCN)C(N)=O)[C@@H](C)O [RKW] (H-RKWILKWLRTWKK-NH2; N-terminus assumed),MBC,[1],50 µM
same,MBC,[2],50 µM
same,MIC,[2]; [6],50 µM
same,MIC,[2]; [7],50 µM
same,MIC,[3]; [6],20 µM
same,MIC,[3]; [7],20 µM
same,Biofilm production,P. aeruginosa biofilm,significantly inhibited the biofilm production
same,α-helical conformation over time in SDS,"[4]; 50 μM peptide, 10 mM Tris-HCl pH 7.0, 50 mM SDS, 25 °C, up to 24 h, CD and fluorescence",did not markedly change its α-helical conformation
same,Helical content at extreme acidic pH,"[4]; 50 μM peptide, 10 mM glycine-HCl pH 2.0, 50 mM SDS, 48 h at 25 °C, CD",entirely disordered
same,Structural and folding stability in SDS micellar solution under other pH and temperature conditions,"[4]; 50 μM peptide, 50 mM SDS, pH 7.0 and 11.0 at 25 °C, 4, 37 and 90 °C at pH 7.0, 48 h, CD and fluorescence",not markedly affected
same,Time the α-helical conformation remains stable in a wide range of pH and temperature,"[4]; membrane-like environment (SDS), abstract",at least 48 h
same,Stability of RKW in heat-inactivated serum (Hi-NCS),"[5]; 5% Hi-NCS (57 °C, 45 min) in DPBS",no peptide breakage
same,"Stability of RKW in serum, not heat-inactivated (NCS)",[5]; 5% NCS in DPBS,complete degradation pattern
